Test results from patent publication US20230060174A1, “PHARMACEUTICAL COMPOSITION OF TRICYCLIC PDE3/PDE4 DUAL INHIBITOR COMPOUND” (CHIA TAI TIANQING PHARMACEUTICAL GROUP CO., LTD., priority 2020, published 2023).

Experiments:
[1] = tested on: TNF-α in human peripheral blood mononuclear cells; experiment: Inhibitory activity against TNF-α in LPS-stimulated hPBMCs (ELISA); type: cell-based; details: PBMC, 1 ng/mL LPS, 24 h, read-out: hPBMC IC50 (TNF-α)
Source text: Experimental Example 8: In vitro detection of the inhibitory activity of the compound against TNF-α in human peripheral blood mononuclear cells Objective: to measure the anti-inflammatory activity at cellular level of the test compound based on the level of TNF-α in human peripheral blood mononuclear cells (hPBMCs).
Procedures: • 1. Normal human whole blood was collected into an EDTA anticoagulation tube; • 2. The PBMC was separated by Ficoll density gradient centrifugation and counted, and the cell concentration was adjusted to 2×10^6 cells/mL; • 3. To each well of a U-bottom 96-well plate were added 2×10^5 cells, 1 ng/mL LPS, and solutions of the compound of formula (I) in DMSO at concentrations of […], 1 μM, 100 nM, 10 nM, 1 nM, 100 pM and 10 pM, with a system volume of 200 μL per well; • 4. The mixture was incubated for 24 h, and then the supernatant was collected; • 5. The level of TNF-α in the supernatant was detected by ELISA, an inhibition curve was fitted using Graphpad Prism software, and the IC50 was calculated.

[2] = biological target: T1, CYP2C19 (Homo sapiens, UniProt P33261); experiment: Inhibition of human liver microsomal CYP2C19 ((S)-mephenytoin probe); type: in vitro ADME; details: human liver microsomes
T1 construct: co-incubated with human liver microsomes; from tissue; host or cells: human liver microsomes
Experimental: (§1) Experimental Example 6: Inhibitory effect on activity of isoenzymes (CYP1A2, CYP2C9, CYP2C19, CYP2D6 and CYP3A4) of human liver microsomal cytochrome P450 A total of 5 specific probe substrates of 5 isoenzymes of CYP, namely phenacetin (CYP1A2), diclofenac (CYP2C9), (S)-mephenytoin (CYP2C19), dextromethorphan (CYP2D6) and midazolam (CYP3A4) were each co-incubated with human liver microsomes and the compound of formula (I), and then reduced nicotinamide adenine dinucleotide phosphate (NADPH) was added to initiate the reaction. After the reaction was completed, the samples were treated, and the concentrations of 5 metabolites (acetaminophen, 4′-hydroxydiclofenac, 4′-hydroxymephenytoin, dextrorphan and l′-hydroxymidazolam) generated from the specific substrates were quantitatively detected by lC-MS/MS to calculate the correcnondino- half maximal inhibitory concentrationc (IC50)

[3] = biological target: T2, recombinant human PDE4B (Homo sapiens, UniProt Q07343); experiment: In vitro inhibitory activity against PDE 4B enzyme (fluorescence polarization); type: biochemical; details: 1 μM cAMP substrate
T2 construct: amino acid 305-end; GST (N); host or cells: Sf9 insect cells (baculovirus)

[4] = biological target: T3, CYP2D6 (Homo sapiens, UniProt P10635); experiment: Inhibition of human liver microsomal CYP2D6 (dextromethorphan probe); type: in vitro ADME; details: human liver microsomes
T3 construct: co-incubated with human liver microsomes; from tissue; host or cells: human liver microsomes
Experimental: as §1

[5] = biological target: T4, CYP1A2 (Homo sapiens, UniProt P05177); experiment: Inhibition of human liver microsomal CYP1A2 (phenacetin probe); type: in vitro ADME; details: human liver microsomes
T4 construct: co-incubated with human liver microsomes; from tissue; host or cells: human liver microsomes
T4 sequence (P05177 1-516): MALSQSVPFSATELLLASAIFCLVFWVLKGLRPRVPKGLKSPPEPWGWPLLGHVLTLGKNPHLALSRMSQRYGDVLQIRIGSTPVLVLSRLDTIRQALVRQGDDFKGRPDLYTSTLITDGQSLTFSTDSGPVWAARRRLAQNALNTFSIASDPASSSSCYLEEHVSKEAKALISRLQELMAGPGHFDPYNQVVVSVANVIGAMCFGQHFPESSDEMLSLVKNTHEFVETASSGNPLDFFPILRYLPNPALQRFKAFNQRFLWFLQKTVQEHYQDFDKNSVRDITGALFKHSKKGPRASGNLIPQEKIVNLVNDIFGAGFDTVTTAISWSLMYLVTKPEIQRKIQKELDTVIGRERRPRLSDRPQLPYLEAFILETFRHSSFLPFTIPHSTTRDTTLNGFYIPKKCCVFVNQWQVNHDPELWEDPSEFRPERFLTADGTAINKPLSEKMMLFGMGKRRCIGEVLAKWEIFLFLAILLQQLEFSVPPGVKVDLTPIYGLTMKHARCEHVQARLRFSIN
Experimental: as §1

[6] = Pharmacokinetic study in beagle dogs; type: in vivo
Experimental: Experimental Example 5: Pharmacokinetic study in beagle dogs In this study, male beagle dogs were selected as test animals, and LC-MS/MS was used for quantitatively measuring the drug concentration in plasma of beagle dogs at different time points after intravenous injection or intragastric administration of the compound of formula (I) so as to evaluate the pharmacokinetics of the compound of formula (I) in beagle dogs.
The clear solution of the compound of formula (I) was injected into two beagle dogs of 10-12 kg via the cephalic vein or saphenous vein, and the clear solution of the compound of formula (I) was administered intragastrically to two beagle dogs of 10-12 kg (overnight fasted). The animals were all subjected to approximately […] blood collection each time from peripheral veins at 0.0333, 0.0833, 0.25, 0.5, 1, 2, 4, 6, 8 and 24 h post-dose, and the blood was transferred into commercial centrifuge tubes containing 0.85-1.15 mg of K2 EDTA.2H20 anticoagulant, and plasma was separated by centrifugation at 3000 g for 10 min at 4° C. The plasma concentration was measured by LC-MS/MS, and the relevant pharmacokinetic parameters were calculated using WinNonlinTM Version 6.3 (Pharsight, Mountain View, Calif.), a pharmacokinetic software, with a non-compartmental model linear-log trapezoidal method.

[7] = intragastric administration 3 mg/kg

T1 sequence (P33261 whole entry): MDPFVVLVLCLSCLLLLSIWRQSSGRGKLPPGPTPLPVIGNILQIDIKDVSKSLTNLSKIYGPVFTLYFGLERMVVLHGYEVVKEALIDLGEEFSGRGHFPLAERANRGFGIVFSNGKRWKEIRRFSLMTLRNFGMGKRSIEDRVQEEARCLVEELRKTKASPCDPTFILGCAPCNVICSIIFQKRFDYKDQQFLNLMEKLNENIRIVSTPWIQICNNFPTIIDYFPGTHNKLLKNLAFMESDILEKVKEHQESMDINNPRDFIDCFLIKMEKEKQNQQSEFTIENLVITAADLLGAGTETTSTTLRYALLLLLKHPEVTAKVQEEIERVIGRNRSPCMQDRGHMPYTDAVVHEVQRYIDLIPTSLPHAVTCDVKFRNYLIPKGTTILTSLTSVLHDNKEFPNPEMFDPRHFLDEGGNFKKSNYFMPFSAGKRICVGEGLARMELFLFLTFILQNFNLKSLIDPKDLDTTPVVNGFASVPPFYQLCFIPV
T3 sequence (P10635 whole entry): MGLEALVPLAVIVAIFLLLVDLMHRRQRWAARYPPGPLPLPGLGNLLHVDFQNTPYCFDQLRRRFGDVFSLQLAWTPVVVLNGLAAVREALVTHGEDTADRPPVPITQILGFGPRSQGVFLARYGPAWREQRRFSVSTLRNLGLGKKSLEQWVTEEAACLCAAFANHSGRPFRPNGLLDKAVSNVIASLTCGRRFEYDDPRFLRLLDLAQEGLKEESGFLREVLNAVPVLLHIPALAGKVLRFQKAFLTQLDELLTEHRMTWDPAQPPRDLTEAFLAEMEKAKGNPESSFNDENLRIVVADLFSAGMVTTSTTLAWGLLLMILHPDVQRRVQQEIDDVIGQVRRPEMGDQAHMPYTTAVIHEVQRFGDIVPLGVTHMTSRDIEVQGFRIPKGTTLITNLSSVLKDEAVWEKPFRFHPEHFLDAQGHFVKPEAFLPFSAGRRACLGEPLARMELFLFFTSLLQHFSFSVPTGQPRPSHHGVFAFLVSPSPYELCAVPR
T2 sequence (Q07343 305-736 limits assumed): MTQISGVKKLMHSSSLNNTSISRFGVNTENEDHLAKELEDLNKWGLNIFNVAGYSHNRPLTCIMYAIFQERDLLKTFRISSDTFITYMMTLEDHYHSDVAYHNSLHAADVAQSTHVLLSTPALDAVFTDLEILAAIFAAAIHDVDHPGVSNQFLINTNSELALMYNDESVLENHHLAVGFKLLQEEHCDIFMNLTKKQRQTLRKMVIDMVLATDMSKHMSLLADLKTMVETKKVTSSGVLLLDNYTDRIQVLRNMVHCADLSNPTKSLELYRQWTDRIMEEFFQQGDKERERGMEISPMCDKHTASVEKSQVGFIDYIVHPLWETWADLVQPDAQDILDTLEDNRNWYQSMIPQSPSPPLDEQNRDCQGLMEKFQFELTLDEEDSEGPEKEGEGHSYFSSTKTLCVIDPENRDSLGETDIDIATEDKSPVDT

SMILES: CCOc1cc2c(cc1OC)-c1c/c(=N\c3c(C)cc(C)cc3C)n(CCNC(=O)c3c(O)nnn3C)c(=O)n1CC2 [Compound of formula (I)]
- IC50 [1]: 29.2 nM
- IC50 [2]: ≥ 50 µM
- IC50 [3]: 0.41 nM
- IC50 [4]: ≥ 50 µM
- IC50 [5]: ≥ 50 µM
- Area under plasma concentration-time curve (0-inf) [6, 7]: 123 nM·h
- Peak concentration [6, 7]: 59.4 nM
- Time to peak [6, 7]: 0.6 h
- Area under plasma concentration-time curve (0-inf) ([6]; intravenous injection 0.5 mg/kg): 210 nM·h
